Reference: patent US20250161476A1 (REGENERON PHARMACEUTICALS, INC., priority 2020, published 2025)
Where a SMILES comes first, the peptide text is derived from it. [ ]: non-standard residue; d: D form. The star is where a group is joined. Bip(2'-Et,4'-O(CH2)4NH2) = CCc1cc(OCCCCN)ccc1-c1ccc(C[C@H](N)C(=O)O)cc1; Malonyl(2,2-Me2,histaminyl) = CC(C)(C(=O)NCCc1cnc[nH]1)C(=O)*; Nva(5-(3,5-Me2Ph)) = Cc1cc(C)cc(CCC[C@H](N)C(=O)O)c1; Ala(1H-tetrazol-5-yl) = N[C@@H](Cc1nnn[nH]1)C(=O)O; αMePhe(2-F) = C[C@](N)(Cc1ccccc1F)C(=O)O; NHPh = c1ccc(N*)cc1

How the values were obtained:
human GLP1R [1] = target: T1, human GLP1R (Homo sapiens (Human), UniProt P43220); assay: Human GLP1R cAMP accumulation assay (HEK293 cells over-expressing human GLP-1R); type: cell-based; settings: HEK293/hGLP1R cells, 30 min
Procedure: The functional activity of the test compounds for agonizing GLP1R were evaluated using a cell-based assay. For the assay, HEK293 cells over-expressing full length human GLP-1R were utilized and the downstream cAMP accumulation was assessed as a measure of human GLP-1R stimulation. […] Diluted compounds were transferred to OptiPlates (100 nL/well) using an Echo liquid handler. HEK293/hGLP1R cells were thawed in 37° C. water-bath, washed 2 times with HBSS and re-suspended in assay buffer (HBSS+5 mM HEPES+500 μM IBMX+0.1% BSA). […] After centrifugation, the assay plate was incubated at 23° C. for 30 min. The reaction was terminated by adding 10 μL of lysis buffer containing D2-cAMP and a cAMP-antibody from the cyclic AMP immunoassay kit (Cisbio, Cat #62AM4PEJ). […] The levels of cAMP per well were calculated using a standard curve generated by GraphPad Prism. […] EC50 values were fitted from a four-parameter logistic equation over a 10-point response curve (GraphPad Prism).

HEK293/CRE-Luc cells = assay: cAMP responsive luciferase reporter assay, HEK293/CRE-Luc cells (no hGLP1R expression); type: cell-based, human
Source text: (§1) To test the activity of GLP1R agonist payloads, GLP1R agonist linker-payloads (LPs), and anti-GLP1R antibody tethered drug conjugates (ATDCs) of the disclosure, a cell-based cAMP responsive luciferase reporter assay was developed. To generate the assay cell line, the firefly luciferase gene was placed under the control of a cAMP response element (CRE) located upstream of a minimal promoter and transfected into HEK293 cells and referred to herein as HEK293/CRE-Luc cells.
(§2) Three-fold serial dilutions of free payloads or LPs were prepared in 100% DMSO, transferred to fresh assay media, and added to the cells at a final constant DMSO concentration of 0.2%. The last well in the plate served as a blank control containing only the assay media and 0.2% DMSO (untreated well) and was plotted as a continuation of the 3-fold serial dilution. Four to six hours later, luciferase activity was determined after the addition of One-Glo™ reagent (Promega, Cat #E6130) to each well. Relative light units (RLUs) were measured on an Envision luminometer (PerkinElmer) and EC50 values were determined using a four-parameter logistic equation over a 12-point dose response curve (GraphPad Prism). The signal to noise (S/N) was determined by taking the ratio of the highest RLU on the dose response curve to the RLU in the untreated wells.

human GLP1R [2] = target: T1, human GLP1R; assay: cAMP responsive luciferase reporter assay, HEK293/CRE-Luc/hGLP1R cells; type: cell-based; settings: for HEK293/CRE-LUC/hGLP1R S/N: highest RLU / RLU of untreated wells; for HEK293/CRE-LUC/hGLP1R Relative Potency (% P8 EC50) / HEK293/CRE-LUC/hGLP1R Relative Signal:Noise (% P8): relative to P8 of the same experiment
Source text: as §1, §2
GLP1R agonist linker payloads were conjugated to anti-hGLP1R antibodies via N-terminal heavy or light chain Q tags. Several resulting anti-GLP1R antibody tethered drug conjugates (ATDCs) were tested for activity in the HEK293/CRE-Luc/hGLP1R reporter assay as described above for the free GLP1R payload and linker-payload agonists.

[3] = Plasma stability of payloads and linker-payloads, human plasma; type: in vitro ADME
Procedure: The plasma stability of payloads and linker payloads of the disclosure were measured. For the assay, pooled frozen plasma (human, mouse or monkey) was thawed in cold water or a 37° C. water bath prior to experiment. Plasma was centrifuged at 4000 rpm for 5 min if any clots were observed, they were subsequently removed. If required, the pH was adjusted to 7.4±0.1. For the preparation of compounds and positive controls, a 1 mM intermediate solution was prepared by diluting 10 μL of their stock solution with 90 μL DMSO; a 1 mM intermediate solution of the positive control (Propantheline) was prepared by diluting 10 μL of its stock solution with 90 μL ultrapure water. […] 98 μL of plasma was spiked with 2 μL of dosing solution (100 μM) to achieve the final concentration of 2 μM in duplicate. Samples were then incubated at 37° C. in a water bath. […] At each time point, 400 μL of stop solution (200 ng/mL tolbutamide plus 200 ng/mL labetalol in 50% ACN/MeOH) was added to precipitate protein and mixed thoroughly. Sample plates were then centrifuged at 4,000 rpm for 10 min. An aliquot of supernatant (50 μL) was transferred from each well and mixed with 100 μL ultra-pure water. The samples were then shaken at 800 rpm for approximately 10 min before submitting for LC-MS/MS analysis.

T1 sequence (P43220 24-463): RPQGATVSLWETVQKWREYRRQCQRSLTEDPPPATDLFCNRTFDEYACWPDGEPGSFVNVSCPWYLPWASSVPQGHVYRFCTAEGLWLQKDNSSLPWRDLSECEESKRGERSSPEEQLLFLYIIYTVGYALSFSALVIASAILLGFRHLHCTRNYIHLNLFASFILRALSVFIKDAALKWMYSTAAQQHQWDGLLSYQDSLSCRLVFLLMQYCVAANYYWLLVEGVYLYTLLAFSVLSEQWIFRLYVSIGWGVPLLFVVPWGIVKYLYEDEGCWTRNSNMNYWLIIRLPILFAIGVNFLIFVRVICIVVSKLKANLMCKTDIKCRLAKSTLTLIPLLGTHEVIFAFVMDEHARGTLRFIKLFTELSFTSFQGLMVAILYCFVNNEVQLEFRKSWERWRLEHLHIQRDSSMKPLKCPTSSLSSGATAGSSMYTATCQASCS

| Structure (SMILES) | EC50 (human GLP1R [1]) | EC50 (HEK293/CRE-Luc cells) | HEK293/CRE-LUC S/N (HEK293/CRE-Luc cells) | HEK293/CRE-LUC/hGLP1R S/N (human GLP1R [2]) | HEK293/CRE-LUC/hGLP1R Relative Potency (% P8 EC50) (human GLP1R [2]) | HEK293/CRE-LUC/hGLP1R Relative Signal:Noise (% P8) (human GLP1R [2]) | Human plasma stability assay T½ ([3]; tested for 3 days (C)) | half-life at 2 µM ([3]; human, pooled plasma, pH 7.4, payload properties table, species not given, read-out: Plasma stability t½ (converted)) | Human plasma stability assay T½ ([3]; tested for 2 hrs (B)) |
| --- | --- | --- | --- | --- | --- | --- | --- | --- | --- |
| CCc1cc(OCCCCNC(=O)CNC(=O)CNC(=O)CNC(=O)CNC(=O)[C@H](CO[C@@H]2OC(CO)[C@@H](O)[C@H](O)C2O)NC(=O)CCNC(=O)OC[C@@H]2[C@@H]3CCC#CCC[C@@H]32)ccc1-c1ccc(C[C@H](NC(=O)[C@H](CC(=O)O)NC(=O)[C@H](CO)NC(=O)[C@@H](NC(=O)[C@](C)(Cc2ccccc2F)NC(=O)[C@@H](NC(=O)CNC(=O)[C@H](Cc2nn[nH]n2)NC(=O)C(C)(C)C(=O)NCCc2cnc[nH]2)[C@@H](C)O)[C@@H](C)O)C(=O)N[C@@H](CCCc2cc(C)cc(C)c2)C(N)=O)cc1 (some centres unmarked) [LP18, BCN-NHC2H4CO-(glucose) SG4-P9] | 0.458 nM |  |  |  |  |  |  |  |  |
| CCc1cc(OCCCCN)ccc1-c1ccc(C[C@H](NC(=O)[C@H](CC(=O)O)NC(=O)[C@H](CO)NC(=O)[C@@H](NC(=O)[C@](C)(Cc2ccccc2F)NC(=O)[C@@H](NC(=O)CNC(=O)[C@H](CCC(N)=O)NC(=O)C(C)(C)C(=O)NCCc2cnc[nH]2)[C@@H](C)O)[C@@H](C)O)C(=O)N[C@@H](CCCc2cc(C)cc(C)c2)C(N)=O)cc1 [P21] |  | > 200 nM | 1.3 | 58.8 | 0.7% | 89.5% | >173.4 h | > 57.8 h |  |
| CCc1cc(OCCCCN)ccc1-c1ccc(C[C@H](NC(=O)[C@H](CC(=O)O)NC(=O)[C@H](CO)NC(=O)[C@@H](NC(=O)[C@](C)(Cc2ccccc2F)NC(=O)[C@@H](NC(=O)CNC(=O)[C@H](Cc2nn[nH]n2)NC(=O)C(C)(C)C(=O)NCCc2cnc[nH]2)[C@@H](C)O)[C@@H](C)O)C(=O)N[C@@H](CCCc2cc(C)cc(C)c2)C(=O)Nc2ccccc2)cc1 [P23] ({Malonyl(2,2-Me2,histaminyl)}-[Ala(1H-tetrazol-5-yl)]GT[αMePhe(2-F)]TSD[Bip(2'-Et,4'-O(CH2)4NH2)][Nva(5-(3,5-Me2Ph))]-NHPh) |  | > 200 nM | 1.6 | 57.1 | 103.0% | 86.9% |  |  | 10.74 h |
